Test results from ChEMBL document CHEMBL4414657, “Psiguadiols A-J, Rearranged Meroterpenoids as Potent PTP1B Inhibitors from Psidium guajava” (J Nat Prod, 2019).

Legend:
[1] = molecular target: T1, Tyrosine-protein phosphatase non-receptor type 1 (Homo sapiens) (UniProt P18031); experiment: Inhibition of PTP1B (unknown origin) at 20 ug/ml using pNPP as substrate incubated for 30 mins by ELISA relative to control
T1 sequence (whole entry): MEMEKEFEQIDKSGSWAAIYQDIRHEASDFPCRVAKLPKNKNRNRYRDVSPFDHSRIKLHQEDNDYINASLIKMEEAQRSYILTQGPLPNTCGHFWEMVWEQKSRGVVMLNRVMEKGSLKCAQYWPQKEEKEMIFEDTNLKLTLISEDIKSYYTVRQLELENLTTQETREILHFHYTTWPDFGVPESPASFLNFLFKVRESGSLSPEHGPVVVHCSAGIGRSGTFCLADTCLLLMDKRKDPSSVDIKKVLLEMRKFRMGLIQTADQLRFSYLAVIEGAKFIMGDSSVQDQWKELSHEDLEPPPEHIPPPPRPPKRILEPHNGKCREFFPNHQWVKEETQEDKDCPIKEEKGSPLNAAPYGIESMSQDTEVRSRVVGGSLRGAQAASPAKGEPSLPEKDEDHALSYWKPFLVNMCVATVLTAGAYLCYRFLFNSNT

[2] = molecular target: T2, Tyrosine-protein phosphatase non-receptor type 1 (Homo sapiens, UniProt P18031); experiment: Inhibition of PTP1B (unknown origin) using pNPP as substrate incubated for 30 mins by ELISA
T2 sequence (P18031 whole entry): T1 sequence (whole entry)

inhibition [1] [%] | IC50 [2] [µM] | SMILES
> 96 | 22.8 | C=C1CC[C@@H]2[C@H]([C@@H]3Oc4c(C=O)c(O)c(C=O)c(O)c4[C@H](c4ccccc4)[C@@]3(C)CC[C@H]1O)C2(C)C
> 96 | 9.2 | C/C1=C/C[C@@H]2[C@H]([C@@H]3Oc4c(C=O)c(O)c(C=O)c(O)c4[C@H](c4ccccc4)[C@@]3(C)CC[C@@H]1O)C2(C)C
> 96 | 18.9 | CC(C)[C@@H]1CC[C@@H](C)[C@]2(O)C[C@@H]3[C@H](c4ccccc4)c4c(O)c(C=O)c(O)c(C=O)c4O[C@]3(C)C=C12
> 96 | 19.1 | CC(C)[C@@H]1CC[C@@H](C)[C@H]2C[C@]34O[C@H]([C@@]21O)[C@@]3(C)Oc1c(C=O)c(O)c(C=O)c(O)c1[C@H]4c1ccccc1
> 96 | 11 | C=C1CC[C@@H]2[C@H](CC2(C)C)[C@@]2(CC[C@@H]1O)C[C@H](c1ccccc1)c1c(O)c(C=O)c(O)c(C=O)c1O2
> 96 | 6.2 | CC(C)[C@@H]1CC[C@@H](C)[C@H]2C[C@@]3(O)[C@H](c4ccccc4)c4c(O)c(C=O)c(O)c(C=O)c4O[C@]3(C)C=C12
> 96 | 4.7 | C=C1CC[C@@H]2[C@H](CC2(C)C)[C@@]2(CC[C@H]1O)C[C@H](c1ccccc1)c1c(O)c(C=O)c(O)c(C=O)c1O2
> 96 | 11.9 | C/C1=C/C[C@@H]2[C@H](CC2(C)C)[C@@]2(CC[C@H]1O)C[C@H](c1ccccc1)c1c(O)c(C=O)c(O)c(C=O)c1O2
> 96 | 22.8 | C=C1CC[C@@H]2[C@H]([C@@H]3Oc4c(C=O)c(O)c(C=O)c(O)c4[C@H](c4ccccc4)[C@@]3(C)CC[C@@H]1O)C2(C)C
> 96 | 10.7 | CC(C)[C@@H]1CC[C@@H](C)[C@]23C[C@@H]4[C@H](c5ccccc5)c5c(O)c(C=O)c(O)c(C=O)c5O[C@]4(C)[C@@H](O)[C@]12O3
